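Briefly, cells in 96-well plates were exposed to five compound concentrations for 48 h, and endpoints were estimated by linear interpolation. At the GI50, growth is halved.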 The source made the active and inactive calls. Cut-off read from the data, not from the text of the source: active = GI50 up to about 1.1 µM and inactive = higher.
Tests used:
Experiment in all cases: growth of human tumour cells (NCI), 48 h
ACHN = test system: ACHN
CAKI-1 = test system: CAKI-1
COLO 205 = test system: COLO 205
DU-145 = test system: DU-145
HOP-62 = test system: HOP-62
MCF7 = test system: MCF7
MDA-MB-435 = test system: MDA-MB-435
Malme-3M = test system: Malme-3M
NCI-H23 = test system: NCI-H23
NCI-H460 = test system: NCI-H460
OVCAR-8 = test system: OVCAR-8
SF-268 = test system: SF-268
SF-539 = test system: SF-539
SK-MEL-2 = test system: SK-MEL-2
SNB-75 = test system: SNB-75
SW-620 = test system: SW-620
T47D = test system: T47D
U-251 = test system: U-251
UO-31 = test system: UO-31

SMILES	GI50 (ACHN)	GI50 (CAKI-1)	GI50 (COLO 205)	GI50 (DU-145)	GI50 (HOP-62)	GI50 (MCF7)	GI50 (MDA-MB-435)	GI50 (Malme-3M)	GI50 (NCI-H23)	GI50 (NCI-H460)	GI50 (OVCAR-8)	GI50 (SF-268)	GI50 (SF-539)	GI50 (SK-MEL-2)	GI50 (SNB-75)	GI50 (SW-620)	GI50 (T47D)	GI50 (U-251)	GI50 (UO-31)
O=C1c2ccccc2C(=O)c2sc(Nc3cc(Cl)ccc3Cl)nc21	5.3 µM (inactive)	5.02 µM (inactive)	16 µM (inactive)	8.57 µM (inactive)	15 µM (inactive)	1.7 µM (inactive)	2.01 µM (inactive)	1.44 µM (inactive)	4.72 µM (inactive)	6.68 µM (inactive)	3.77 µM (inactive)	4.09 µM (inactive)	3.16 µM (inactive)	11.4 µM (inactive)	15.1 µM (inactive)	2.94 µM (inactive)	3.99 µM (inactive)	6.56 µM (inactive)	6.03 µM (inactive)
CC1CCCc2c(-c3ccc(Cl)cc3)nc(N)c(C#N)c21 (stereo not drawn)	38.5 µM (inactive)	58.2 µM (inactive)	23.2 µM (inactive)	39 µM (inactive)	19.2 µM (inactive)	29 µM (inactive)	30.1 µM (inactive)	24.4 µM (inactive)	30.4 µM (inactive)	33.1 µM (inactive)	24.6 µM (inactive)	69.3 µM (inactive)	25.5 µM (inactive)	18.4 µM (inactive)	11.7 µM (inactive)	61.9 µM (inactive)	2.09 µM (inactive)	39.9 µM (inactive)	21.6 µM (inactive)
CC(C)c1ccc2c(c1)CCC1C(C)(CN)CCCC21C (stereo not drawn)	1.74 µM (inactive)	1.41 µM (inactive)	0.575 µM (active)	1.77 µM (inactive)	1.75 µM (inactive)	1.44 µM (inactive)	1.44 µM (inactive)	1.43 µM (inactive)	1.7 µM (inactive)	1.22 µM (inactive)	1.73 µM (inactive)	1.65 µM (inactive)	1.79 µM (inactive)	1.73 µM (inactive)	1.94 µM (inactive)	1.29 µM (inactive)	1.45 µM (inactive)	1.38 µM (inactive)	1.39 µM (inactive)
CC(C)(C)OC(=O)NCC(c1c[nH]c2cc(Br)ccc12)c1c[nH]c2cc(Br)ccc12	16.7 µM (inactive)	26.9 µM (inactive)	15.6 µM (inactive)	17.7 µM (inactive)	17.4 µM (inactive)	18.6 µM (inactive)	16.8 µM (inactive)	17.2 µM (inactive)	18.2 µM (inactive)	21.2 µM (inactive)	18.3 µM (inactive)	16.3 µM (inactive)	20.2 µM (inactive)	18.4 µM (inactive)	21.9 µM (inactive)	28.9 µM (inactive)	17.6 µM (inactive)	17.3 µM (inactive)	17.5 µM (inactive)
CC1CNC(c2ccc(-c3nc(-c4ccc(C5=NC(C)CN5)cc4)nc(N(C)C)n3)cc2)=N1 (stereo not drawn)	3.01 µM (inactive)	17.6 µM (inactive)	1.1 µM (active)	1.78 µM (inactive)	1.47 µM (inactive)	1.42 µM (inactive)	1.46 µM (inactive)	3.08 µM (inactive)	2.39 µM (inactive)	3.27 µM (inactive)	2.12 µM (inactive)	2 µM (inactive)	0.855 µM (active)	2.01 µM (inactive)	1.82 µM (inactive)	1.17 µM (inactive)	2.71 µM (inactive)	0.991 µM (active)	7.33 µM (inactive)
c1ccc(N/N=C2\CC(c3ccccc3)Oc3ccccc32)cc1 (stereo not drawn)	43.5 µM (inactive)	50.2 µM (inactive)	67.8 µM (inactive)	36 µM (inactive)	61 µM (inactive)	24 µM (inactive)	27.5 µM (inactive)	> 100 µM (inactive)	60.4 µM (inactive)	45 µM (inactive)	39.6 µM (inactive)	35.8 µM (inactive)	37.6 µM (inactive)	65.3 µM (inactive)	22.9 µM (inactive)	30.5 µM (inactive)	26.4 µM (inactive)	33.8 µM (inactive)	22.1 µM (inactive)
N#Cc1c2ccc([N+](=O)[O-])cc2c(=O)n2c1[nH]c1ccc(C(F)(F)F)cc12	48 µM (inactive)	60.8 µM (inactive)	16.9 µM (inactive)	44.4 µM (inactive)	26.9 µM (inactive)	63.4 µM (inactive)	54 µM (inactive)	41 µM (inactive)	20.1 µM (inactive)	21.1 µM (inactive)	33.1 µM (inactive)	39.6 µM (inactive)	> 100 µM (inactive)	> 64.7 µM (inactive)	27.3 µM (inactive)	14.4 µM (inactive)	32.4 µM (inactive)	26.4 µM (inactive)	17.5 µM (inactive)
Cc1ccc(C(C)C)c(OCC(=O)N/N=C/c2c[nH]c3ccc(Br)cc23)c1	4.85 µM (inactive)	2.55 µM (inactive)	1.69 µM (inactive)	2.56 µM (inactive)	5.79 µM (inactive)	0.45 µM (active)	0.904 µM (active)	6.3 µM (inactive)	0.451 µM (active)	2.17 µM (inactive)	3.95 µM (inactive)	7.85 µM (inactive)	1.72 µM (inactive)	2.44 µM (inactive)	2.13 µM (inactive)	3.61 µM (inactive)	5.62 µM (inactive)	3.11 µM (inactive)	3.49 µM (inactive)
C[C@]12CC[C@H]3[C@@H](CCC4=C[C@@H](N5CCCC5)CC[C@@]43C)[C@@H]1C/C(=C\c1ccncc1)[C@@H]2O	17 µM (inactive)	28.8 µM (inactive)	6.32 µM (inactive)	15.9 µM (inactive)	4.68 µM (inactive)	12.8 µM (inactive)	10.3 µM (inactive)	13.6 µM (inactive)	15.5 µM (inactive)	11.6 µM (inactive)	24.9 µM (inactive)	16.5 µM (inactive)	9.35 µM (inactive)	16.4 µM (inactive)	14.3 µM (inactive)	13.4 µM (inactive)	16.4 µM (inactive)	12.6 µM (inactive)	4.92 µM (inactive)
CCC(=O)Nc1ccc(N2C(=O)/C(=C/c3ccc(O)c(OC)c3)N=C2c2ccccc2)cc1	23.3 µM (inactive)	17.3 µM (inactive)		28.7 µM (inactive)	46.6 µM (inactive)	31.6 µM (inactive)	29.5 µM (inactive)	29.8 µM (inactive)	43.8 µM (inactive)	23.9 µM (inactive)	44.5 µM (inactive)	27 µM (inactive)	84.1 µM (inactive)	23.6 µM (inactive)	> 100 µM (inactive)	51.2 µM (inactive)	24 µM (inactive)		25.5 µM (inactive)
CCOC(=O)c1cc2c3c(c(C(C)=O)c(O)c2[nH]1)N(CC(C)CC)CC3 (stereo not drawn)	> 100 µM (inactive)	64.9 µM (inactive)	> 100 µM (inactive)	> 100 µM (inactive)		> 100 µM (inactive)	44.3 µM (inactive)	21.4 µM (inactive)	44.9 µM (inactive)	> 100 µM (inactive)	61.7 µM (inactive)	35 µM (inactive)	70 µM (inactive)	> 100 µM (inactive)	30.7 µM (inactive)	> 100 µM (inactive)	21.9 µM (inactive)	78.2 µM (inactive)	83.4 µM (inactive)
O=[N+]([O-])c1ccccc1S(=O)(=O)N1CCCc2cc(Cl)ccc21	> 51.6 µM (inactive)	> 100 µM (inactive)	38.7 µM (inactive)	> 90.6 µM (inactive)	60.3 µM (inactive)	28.2 µM (inactive)	4.46 µM (inactive)	> 100 µM (inactive)	34 µM (inactive)	18.6 µM (inactive)	88.9 µM (inactive)	> 68.1 µM (inactive)	32.4 µM (inactive)	> 52.6 µM (inactive)	4.59 µM (inactive)	17.1 µM (inactive)	15.3 µM (inactive)		30.6 µM (inactive)
C=CCn1c(N)c(C#N)c(C#N)c1CCC	> 100 µM (inactive)	> 100 µM (inactive)	> 100 µM (inactive)	> 100 µM (inactive)	> 100 µM (inactive)	> 100 µM (inactive)	> 100 µM (inactive)	> 100 µM (inactive)	> 100 µM (inactive)		> 100 µM (inactive)	> 100 µM (inactive)	> 100 µM (inactive)	> 100 µM (inactive)	25 µM (inactive)	> 100 µM (inactive)	> 100 µM (inactive)	> 100 µM (inactive)	> 100 µM (inactive)
CO[P@@]1(=O)O[C@@H](c2ccccc2)[C@H](O)[C@]1(O)c1ccccc1	> 100 µM (inactive)	> 100 µM (inactive)	> 100 µM (inactive)	> 100 µM (inactive)		> 100 µM (inactive)	> 100 µM (inactive)	> 100 µM (inactive)	> 100 µM (inactive)	> 100 µM (inactive)	> 100 µM (inactive)	> 100 µM (inactive)	> 100 µM (inactive)	> 100 µM (inactive)	> 100 µM (inactive)	> 100 µM (inactive)	> 100 µM (inactive)	> 100 µM (inactive)	> 100 µM (inactive)
N#CC(c1ccccc1)N(CCCCCCN(C(=O)c1ccccc1)C(C#N)c1ccccc1)C(=O)c1ccccc1 (stereo not drawn)	38.4 µM (inactive)	32.1 µM (inactive)	18.1 µM (inactive)	41.3 µM (inactive)		28.1 µM (inactive)	32.8 µM (inactive)	35.8 µM (inactive)	26.2 µM (inactive)	27.6 µM (inactive)	30.1 µM (inactive)	40.4 µM (inactive)	41.5 µM (inactive)	23.6 µM (inactive)	52.4 µM (inactive)	39.3 µM (inactive)	28.5 µM (inactive)	52.6 µM (inactive)	18 µM (inactive)

— ChEMBL document CHEMBL1201862, “PubChem BioAssay data set” (2004)
